Results on two compounds are retold here after patent US10479786B2, “Protein kinase inhibitors” (Princeton Drug Discovery Inc, priority 2016, dated 2019).

In one data set the test system is Mino. Description: Cell inhibition assay (PrestoBlue, 48 h). Type of data set: cell-based. As to conditions: Homo sapiens, Mino cells, read-out: IC50, inhibition of growth.
Data set [1] relates to battery of selected protein kinases. Description: In vitro screen of a battery of selected protein kinases (summary statement). Type of data set: biochemical. The conditions noted are these: BTK, BMX, ABL, ABL(E255K), SRC, ACK, ARG, BLK, DDR2, EPHA, FGR, FMS, FRK, FYN, HCK, LCK, LYN, PDGFRα, PDGFRβ, YES, PIK3CA/PIK3R1, among others.
Another data set concerns the target T1, ABL(E255K) (Homo sapiens, UniProt P00519, E255K).
T1 construct: purchased Carna Biosciences, Inc
Description: Off-chip Mobility Shift Assay, kinase inhibition. As to conditions: recombinant ABL(E255K); for inhibition at 0.001 µM: at 1 nM; for inhibition at 0.01 µM: at 10 nM. Type of data set: biochemical.

Another data set concerns the target T2, ARG (Homo sapiens, UniProt P42684).
T2 construct: purchased Carna Biosciences, Inc
Description: Off-chip Mobility Shift Assay, kinase inhibition. Type of data set: biochemical. As to conditions: at 10 nM; recombinant ARG; read-out: inhibition.

For a further data set, the target named is T3, PDGFRα (Homo sapiens, UniProt P16234).
T3 construct: purchased Carna Biosciences, Inc
T3 sequence (P16234 24-1089): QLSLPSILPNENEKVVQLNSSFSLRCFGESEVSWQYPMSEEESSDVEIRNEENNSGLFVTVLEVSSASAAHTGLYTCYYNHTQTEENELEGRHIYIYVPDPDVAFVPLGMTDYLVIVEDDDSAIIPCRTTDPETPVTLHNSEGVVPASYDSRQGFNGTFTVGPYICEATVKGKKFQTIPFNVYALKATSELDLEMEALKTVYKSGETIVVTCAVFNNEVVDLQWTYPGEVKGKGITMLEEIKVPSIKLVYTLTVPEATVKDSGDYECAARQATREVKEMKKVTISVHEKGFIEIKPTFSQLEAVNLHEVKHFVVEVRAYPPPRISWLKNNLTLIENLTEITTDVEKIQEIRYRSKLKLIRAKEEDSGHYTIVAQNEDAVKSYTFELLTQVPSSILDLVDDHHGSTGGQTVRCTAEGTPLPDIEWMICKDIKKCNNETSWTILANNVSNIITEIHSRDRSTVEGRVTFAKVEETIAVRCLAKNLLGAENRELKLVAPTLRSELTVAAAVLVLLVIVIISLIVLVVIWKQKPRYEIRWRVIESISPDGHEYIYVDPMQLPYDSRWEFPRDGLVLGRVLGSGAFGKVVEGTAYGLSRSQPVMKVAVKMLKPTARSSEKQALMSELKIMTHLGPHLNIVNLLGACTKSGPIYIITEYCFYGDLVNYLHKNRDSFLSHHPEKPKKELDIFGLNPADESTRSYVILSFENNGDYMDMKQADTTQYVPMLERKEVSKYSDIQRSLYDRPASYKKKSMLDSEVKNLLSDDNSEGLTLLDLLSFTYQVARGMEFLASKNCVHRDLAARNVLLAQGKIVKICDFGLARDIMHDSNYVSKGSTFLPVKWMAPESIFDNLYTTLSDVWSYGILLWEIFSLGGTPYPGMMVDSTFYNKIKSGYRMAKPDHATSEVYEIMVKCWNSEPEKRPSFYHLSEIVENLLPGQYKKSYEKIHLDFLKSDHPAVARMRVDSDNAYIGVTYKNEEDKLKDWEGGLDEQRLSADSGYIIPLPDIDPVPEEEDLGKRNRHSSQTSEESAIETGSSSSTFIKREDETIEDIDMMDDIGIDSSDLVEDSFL
The experiment in a line: Off-chip Mobility Shift Assay, kinase inhibition. Type of data set: biochemical. As to conditions: at 10 nM; recombinant PDGFRα; read-out: inhibition.

Another data set has as its target T4, BLK (Homo sapiens, UniProt P51451).
T4 construct: purchased Carna Biosciences, Inc
The experiment in a line: Off-chip Mobility Shift Assay, kinase inhibition. Type of data set: biochemical. As to conditions: at 10 nM; recombinant BLK.

The test system of another data set is SU-DHL-4. Description: Cell inhibition assay (PrestoBlue, 48 h). Type of data set: cell-based. The conditions noted are these: Homo sapiens, SU-DHL-4, 48 h, SU-DHL-4 diffuse large B-cell lymphoma cells, read-out: IC50, inhibition of growth.
A further data set addresses T5, LCK (Homo sapiens, UniProt P06239).
T5 construct: purchased Carna Biosciences, Inc
Description: Off-chip Mobility Shift Assay, kinase inhibition. Type of data set: biochemical. As to conditions: recombinant LCK; for inhibition at 0.001 µM: at 1 nM; for inhibition at 0.01 µM: at 10 nM.

Data set [2] in a line: Metabolic stability in human liver microsomes. The conditions noted are these: human liver microsomes. Type of data set: in vitro ADME. The procedure:
FIG. 1. Metabolic stability of compounds in human liver microsomal incubations. […] Concentrations at specified times were determined by LC-MS/MS.
The incubation reactions at various time points were quenched by adding 2× volumes of acetonitrile containing 100 nM reserpine. The quenched incubation samples were centrifuged at 4000 RPM for 10 min, and the supernatants injected for LC/MS/MS analysis. LC/MS/MS analysis was carried out on a AB Sciex 4000 Q Trap LC/MS/MS system coupled with Shimadzu Prominence UFLCXR 20 series (including a CBM-20A controller, two LC-20ADXR solvent delivery units, SIL-20AC HT autosampler, CTO-20A column oven, and a SPD-20A UV detector).

A further data set concerns the target T6, BTK (Homo sapiens, UniProt Q06187).
T6 construct: purchased Carna Biosciences, Inc
The experiment in a line: Off-chip Mobility Shift Assay, kinase inhibition. The conditions noted are these: recombinant BTK; for inhibition at 0.001 µM: at 1 nM; for inhibition at 0.01 µM: at 10 nM. Type of data set: biochemical.

In another data set the target is T7, TEC (Homo sapiens, UniProt P42680).
T7 construct: purchased Carna Biosciences, Inc
T7 sequence (P42680 1-631): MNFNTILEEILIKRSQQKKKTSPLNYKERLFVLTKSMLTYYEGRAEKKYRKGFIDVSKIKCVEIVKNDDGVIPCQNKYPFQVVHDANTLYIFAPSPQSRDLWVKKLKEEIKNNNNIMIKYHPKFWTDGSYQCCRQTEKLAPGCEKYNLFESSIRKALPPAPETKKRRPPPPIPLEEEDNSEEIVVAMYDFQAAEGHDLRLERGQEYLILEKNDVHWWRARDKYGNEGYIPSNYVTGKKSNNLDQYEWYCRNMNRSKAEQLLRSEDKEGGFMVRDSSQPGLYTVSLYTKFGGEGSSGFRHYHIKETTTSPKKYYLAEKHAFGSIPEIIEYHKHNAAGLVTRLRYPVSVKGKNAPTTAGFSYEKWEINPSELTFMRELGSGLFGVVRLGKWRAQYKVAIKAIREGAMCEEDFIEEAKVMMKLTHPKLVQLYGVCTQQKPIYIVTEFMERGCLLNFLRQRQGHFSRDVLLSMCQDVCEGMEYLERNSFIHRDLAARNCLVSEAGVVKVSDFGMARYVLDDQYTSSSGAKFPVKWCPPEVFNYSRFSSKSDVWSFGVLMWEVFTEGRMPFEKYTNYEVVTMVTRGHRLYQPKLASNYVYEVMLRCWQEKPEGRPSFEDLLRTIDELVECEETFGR
Description: Off-chip Mobility Shift Assay, kinase inhibition. The conditions noted are these: at 1 nM; recombinant TEC. Type of data set: biochemical.

The target in another data set is T8, ACK (Homo sapiens, UniProt Q07912).
T8 construct: purchased Carna Biosciences, Inc
The experiment in a line: Off-chip Mobility Shift Assay, kinase inhibition. Type of data set: biochemical. As to conditions: at 10 nM; recombinant ACK.

In another data set the target is T9, YES (Homo sapiens, UniProt P07947).
T9 construct: purchased Carna Biosciences, Inc
T9 sequence (P07947 whole entry): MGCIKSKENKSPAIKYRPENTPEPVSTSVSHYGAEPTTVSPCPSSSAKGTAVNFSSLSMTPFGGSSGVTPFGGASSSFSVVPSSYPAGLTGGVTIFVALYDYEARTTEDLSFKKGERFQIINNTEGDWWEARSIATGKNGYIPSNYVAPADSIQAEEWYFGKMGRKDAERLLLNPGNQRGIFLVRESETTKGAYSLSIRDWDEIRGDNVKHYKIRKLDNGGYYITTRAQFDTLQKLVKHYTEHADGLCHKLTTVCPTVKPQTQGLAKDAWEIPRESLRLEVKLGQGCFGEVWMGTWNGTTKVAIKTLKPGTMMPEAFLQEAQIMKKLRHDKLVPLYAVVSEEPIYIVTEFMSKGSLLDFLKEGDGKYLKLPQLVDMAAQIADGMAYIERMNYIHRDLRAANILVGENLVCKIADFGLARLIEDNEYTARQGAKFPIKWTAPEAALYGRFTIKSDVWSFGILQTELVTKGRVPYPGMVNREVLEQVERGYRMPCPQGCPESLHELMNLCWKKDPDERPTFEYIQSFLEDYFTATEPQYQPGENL
The experiment in a line: Off-chip Mobility Shift Assay, kinase inhibition. As to conditions: recombinant YES; for inhibition at 0.001 µM: at 1 nM; for inhibition at 0.01 µM: at 10 nM. Type of data set: biochemical.

Another data set deals with T10, FYN(isoform a) (Homo sapiens, UniProt P06241).
T10 construct: purchased Carna Biosciences, Inc
The experiment in a line: Off-chip Mobility Shift Assay, kinase inhibition. Type of data set: biochemical. As to conditions: at 10 nM; recombinant FYN(isoform a).

Another data set addresses T11, HCK (Homo sapiens, UniProt P08631).
T11 construct: purchased Carna Biosciences, Inc
The experiment in a line: Off-chip Mobility Shift Assay, kinase inhibition. Type of data set: biochemical. As to conditions: recombinant HCK; for inhibition at 0.001 µM: at 1 nM; for inhibition at 0.01 µM: at 10 nM, read-out: inhibition.

The target in another data set is T12, FGR (Homo sapiens, UniProt P09769).
T12 construct: purchased Carna Biosciences, Inc
The experiment in a line: Off-chip Mobility Shift Assay, kinase inhibition. Type of data set: biochemical. As to conditions: at 10 nM; recombinant FGR; read-out: inhibition.

For a further data set, the target named is T13, SRC (Homo sapiens, UniProt P12931).
T13 construct: purchased Carna Biosciences, Inc
T13 sequence (P12931 whole entry): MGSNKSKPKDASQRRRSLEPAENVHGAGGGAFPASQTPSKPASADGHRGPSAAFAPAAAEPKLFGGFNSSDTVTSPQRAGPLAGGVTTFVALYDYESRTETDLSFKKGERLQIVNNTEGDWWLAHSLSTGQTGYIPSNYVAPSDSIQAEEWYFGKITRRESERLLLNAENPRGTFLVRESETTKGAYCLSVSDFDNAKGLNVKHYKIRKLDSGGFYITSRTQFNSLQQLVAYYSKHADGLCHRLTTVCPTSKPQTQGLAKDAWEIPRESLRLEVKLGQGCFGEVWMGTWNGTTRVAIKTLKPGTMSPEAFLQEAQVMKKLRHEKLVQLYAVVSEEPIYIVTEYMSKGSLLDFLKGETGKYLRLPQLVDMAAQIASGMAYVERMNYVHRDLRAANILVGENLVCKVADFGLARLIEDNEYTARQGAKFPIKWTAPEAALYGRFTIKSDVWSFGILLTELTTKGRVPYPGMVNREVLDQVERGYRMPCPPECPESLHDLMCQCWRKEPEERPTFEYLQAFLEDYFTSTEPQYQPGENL
Description: Off-chip Mobility Shift Assay, kinase inhibition. As to conditions: recombinant SRC; for inhibition at 0.001 µM: at 1 nM; for inhibition at 0.01 µM: at 10 nM. Type of data set: biochemical.

T5 sequence (P06239 whole entry): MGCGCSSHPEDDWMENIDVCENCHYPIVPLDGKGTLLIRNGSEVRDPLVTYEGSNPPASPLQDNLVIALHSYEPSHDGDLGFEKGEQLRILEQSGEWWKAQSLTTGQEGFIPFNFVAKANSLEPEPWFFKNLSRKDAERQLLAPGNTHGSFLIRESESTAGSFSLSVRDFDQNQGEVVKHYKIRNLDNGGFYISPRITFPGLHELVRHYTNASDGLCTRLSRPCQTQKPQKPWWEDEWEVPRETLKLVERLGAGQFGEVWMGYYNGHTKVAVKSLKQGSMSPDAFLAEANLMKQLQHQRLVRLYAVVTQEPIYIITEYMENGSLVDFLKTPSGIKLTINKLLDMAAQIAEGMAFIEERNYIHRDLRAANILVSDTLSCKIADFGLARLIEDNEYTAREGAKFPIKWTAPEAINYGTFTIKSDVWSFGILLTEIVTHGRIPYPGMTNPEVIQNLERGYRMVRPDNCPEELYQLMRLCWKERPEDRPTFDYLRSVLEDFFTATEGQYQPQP
T6 sequence (Q06187 whole entry): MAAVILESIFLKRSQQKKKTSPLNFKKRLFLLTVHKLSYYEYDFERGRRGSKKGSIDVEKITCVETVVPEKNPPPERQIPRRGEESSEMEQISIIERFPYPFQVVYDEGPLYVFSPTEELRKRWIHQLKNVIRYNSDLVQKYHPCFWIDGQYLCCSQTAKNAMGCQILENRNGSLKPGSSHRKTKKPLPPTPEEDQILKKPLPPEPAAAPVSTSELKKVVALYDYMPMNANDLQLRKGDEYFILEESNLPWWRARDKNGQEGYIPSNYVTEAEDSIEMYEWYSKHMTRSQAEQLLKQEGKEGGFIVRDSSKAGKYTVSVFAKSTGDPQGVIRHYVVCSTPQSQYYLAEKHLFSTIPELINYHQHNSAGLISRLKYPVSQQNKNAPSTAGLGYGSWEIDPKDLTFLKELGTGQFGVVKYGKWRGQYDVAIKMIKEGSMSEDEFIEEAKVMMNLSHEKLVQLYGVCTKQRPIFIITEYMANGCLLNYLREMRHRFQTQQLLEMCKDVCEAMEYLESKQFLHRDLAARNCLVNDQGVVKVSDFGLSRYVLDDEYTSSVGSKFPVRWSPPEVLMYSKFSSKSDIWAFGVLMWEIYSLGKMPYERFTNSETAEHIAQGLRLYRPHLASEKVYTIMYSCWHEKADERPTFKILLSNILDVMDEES
T11 sequence (P08631 whole entry): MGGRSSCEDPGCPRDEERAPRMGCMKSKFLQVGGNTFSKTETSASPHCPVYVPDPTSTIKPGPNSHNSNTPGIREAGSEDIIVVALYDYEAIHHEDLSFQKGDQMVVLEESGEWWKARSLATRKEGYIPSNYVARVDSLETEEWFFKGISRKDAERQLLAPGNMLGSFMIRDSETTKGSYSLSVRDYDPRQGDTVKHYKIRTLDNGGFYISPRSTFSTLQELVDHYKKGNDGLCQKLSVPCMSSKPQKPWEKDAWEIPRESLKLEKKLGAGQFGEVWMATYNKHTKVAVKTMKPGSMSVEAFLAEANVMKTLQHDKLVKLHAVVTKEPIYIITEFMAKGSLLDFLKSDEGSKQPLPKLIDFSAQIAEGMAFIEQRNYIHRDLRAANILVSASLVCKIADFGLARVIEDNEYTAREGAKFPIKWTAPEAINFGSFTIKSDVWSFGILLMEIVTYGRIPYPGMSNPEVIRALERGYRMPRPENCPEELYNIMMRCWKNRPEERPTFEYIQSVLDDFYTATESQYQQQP
T1 sequence (P00519 whole entry E255K): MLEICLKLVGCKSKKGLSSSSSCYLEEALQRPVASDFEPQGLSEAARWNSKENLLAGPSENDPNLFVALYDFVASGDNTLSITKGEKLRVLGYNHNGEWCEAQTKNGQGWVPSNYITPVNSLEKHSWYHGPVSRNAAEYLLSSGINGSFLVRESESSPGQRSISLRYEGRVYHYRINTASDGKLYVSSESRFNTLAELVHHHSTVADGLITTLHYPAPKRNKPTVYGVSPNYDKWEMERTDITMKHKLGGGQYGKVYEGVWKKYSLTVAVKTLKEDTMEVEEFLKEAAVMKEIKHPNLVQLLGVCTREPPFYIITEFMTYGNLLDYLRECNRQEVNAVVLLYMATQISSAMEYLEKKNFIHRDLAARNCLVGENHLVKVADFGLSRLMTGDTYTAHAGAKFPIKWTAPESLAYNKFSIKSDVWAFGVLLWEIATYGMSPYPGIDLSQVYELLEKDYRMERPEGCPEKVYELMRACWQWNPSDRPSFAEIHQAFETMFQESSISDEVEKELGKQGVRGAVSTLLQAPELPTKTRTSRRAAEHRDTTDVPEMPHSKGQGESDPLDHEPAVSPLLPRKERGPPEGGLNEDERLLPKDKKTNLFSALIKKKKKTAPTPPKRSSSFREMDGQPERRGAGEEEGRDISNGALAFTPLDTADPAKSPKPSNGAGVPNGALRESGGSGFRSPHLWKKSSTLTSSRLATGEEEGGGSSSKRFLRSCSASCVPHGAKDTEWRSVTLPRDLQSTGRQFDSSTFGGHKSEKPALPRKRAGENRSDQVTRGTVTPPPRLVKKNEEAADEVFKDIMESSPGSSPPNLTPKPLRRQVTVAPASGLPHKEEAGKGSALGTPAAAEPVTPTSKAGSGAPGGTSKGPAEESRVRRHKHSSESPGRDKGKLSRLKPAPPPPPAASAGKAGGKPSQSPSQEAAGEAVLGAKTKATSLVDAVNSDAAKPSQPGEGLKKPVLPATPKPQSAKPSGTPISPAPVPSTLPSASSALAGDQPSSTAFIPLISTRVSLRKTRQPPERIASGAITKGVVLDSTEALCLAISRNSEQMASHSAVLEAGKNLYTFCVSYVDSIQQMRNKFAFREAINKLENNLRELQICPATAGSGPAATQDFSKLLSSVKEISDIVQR

`Cc1nc(Nc2ncc(C(=O)Nc3c(C)cccc3Cl)s2)cc(N2CCCCC2)n1` [Compound VIII, N-(2-chloro-6-methylphenyl)-2-[[2-methyl-6-(piperidin-1-yl)pyrimidin-4-yl]amino]thiazole-5-carboxamide]: the IC50 is below 50 nM in the data set on Mino and below 20 nM in the data set on SU-DHL-4. The “activity to inhibit kinases” value in data set [1] is given as “potent activity”. Further, the inhibition at 0.001 µM on ABL(E255K), at LCK, on BTK, at TEC, on YES and on HCK was above 50% each time. In addition, the inhibition at 0.001 µM on SRC was above 50%. For the same compound, the inhibition at 0.01 µM on ABL(E255K), on ARG, at PDGFRα, at BLK, at LCK and at BTK was above 50% in each case. In addition, the inhibition at 0.01 µM at ACK, at YES, on FYN(isoform a), on HCK, at FGR and at SRC was above 50% each time. For the same compound, the “metabolic stability compared to dasatinib” value in data set [2] is “significantly greater stability”.
Regarding `Cc1nc(Nc2ncc(C(=O)Nc3c(C)cccc3Cl)s2)cc(N2CC[C@H](N)C2)n1` [Compound XII, N-(2-chloro-6-methylphenyl)-2-[[2-methyl-6-((S)-3-aminopyrrolidin-1-yl)pyrimidin-4-yl]amino]thiazole-5-carboxamide], the IC50 was below 50 nM in the data set with Mino and below 20 nM in the data set on SU-DHL-4. Moreover, in data set [1], the “activity to inhibit kinases” value is on record as “potent activity”. Besides, the inhibition at 0.001 µM on ABL(E255K), on LCK, at BTK, at TEC, on YES and on HCK was above 50% each time. For the same compound, on SRC, the inhibition at 0.001 µM was above 50%. For the same compound, the inhibition at 0.01 µM at ABL(E255K), at ARG, at PDGFRα, at BLK, on LCK and on BTK was above 50% throughout. The inhibition at 0.01 µM on ACK, at YES, at FYN(isoform a), on HCK, at FGR and at SRC was above 50% throughout. In addition, in data set [2], the “metabolic stability compared to dasatinib” value is given as “significantly greater stability”.
